Experimental data reported in patent US20250179017A1 (GUANGDONG NEWOPP BIOPHARMACEUTICALS CO., LTD., priority 2022, published 2025).

target: T1, human EP2 (PTGER2) (Homo sapiens, UniProt P43116); assay: EP2 antagonist assay (HEK-293 CNG membrane potential cAMP assay / 293T SEAP reporter assay, PGE2-stimulated); assay type: cell-based; conditions: EP2 antagonist activity; concentration for 50% inhibition of signal compared to DMSO
T1 construct: Cayman Chemical (Human EP2 Reporter Assay Kit)
Procedure, shortened: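 HEK-293 CNG cells expressing human EP2: compound preincubated 15 min at RT, then PGE2 at 5 nM final, 30 min; membrane-potential dye fluorescence (ex 530, em 590 nm), background-subtracted, gave IC50. Alternatively, 293T cells reverse-transfected with EP2 and CRE-SEAP, compound plus 13 nM PGE2 for 6-8 h, SEAP luminescence.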

T1 sequence (P43116 whole entry): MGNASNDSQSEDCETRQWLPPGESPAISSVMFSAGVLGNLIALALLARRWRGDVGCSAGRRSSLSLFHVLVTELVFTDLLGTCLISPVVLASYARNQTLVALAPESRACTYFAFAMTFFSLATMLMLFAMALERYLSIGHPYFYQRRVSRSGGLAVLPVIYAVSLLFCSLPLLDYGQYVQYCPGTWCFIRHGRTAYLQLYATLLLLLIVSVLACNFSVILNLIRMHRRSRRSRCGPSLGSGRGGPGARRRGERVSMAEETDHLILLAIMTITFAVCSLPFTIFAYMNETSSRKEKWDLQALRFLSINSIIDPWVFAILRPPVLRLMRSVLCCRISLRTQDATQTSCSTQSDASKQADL

IC50	Structure (SMILES)
100 to 1000 nM	O=C(O)c1ccc(CNC(=O)c2cc(-c3ccccc3C(F)(F)F)cc3ccn(Cc4ccc(C(F)(F)F)cc4)c23)cc1 [Example 89, 4-((1-(4-(trifluoromethyl)benzyl)-5-(2-(trifluoromethyl)phenyl)-1H-indole-7-carboxamido)methyl)benzoic acid]
< 100 nM	O=C(O)c1ccc(CNC(=O)c2cc(-c3ccccc3Cl)cc3ccn(Cc4ccc(C(F)(F)F)cc4)c23)cc1 [Example 90, 4-((5-(2-chlorophenyl)-1-(4-(trifluoromethyl)benzyl)-1H-indole-7-carboxamido)methyl)benzoic acid]
< 100 nM	O=C(O)c1ccc(CNC(=O)c2cc(-c3ccc(Cl)c(F)c3)cc3ccn(Cc4ccc(C(F)(F)F)cc4)c23)cc1 [Example 91, 4-((5-(4-chloro-3-fluorophenyl)-1-(4-(trifluoromethyl)benzyl)-1H-indole-7-carboxamido)methyl)benzoic]
< 100 nM	Cc1ccccc1-c1cc(C(=O)NCc2ccc(C(=O)O)cc2)c2c(ccn2Cc2ccc(C(F)(F)F)cc2)c1 [Example 92, 4-((5-(o-tolyl)-1-(4-(trifluoromethyl)benzyl)-1H-indole-7-carboxamido)methyl)benzoic acid]
100 to 1000 nM	Nc1ccccc1-c1cc(C(=O)NCc2ccc(C(=O)O)cc2)c2c(ccn2Cc2ccc(C(F)(F)F)cc2)c1 [Example 93, 4-((5-(2-aminophenyl)-1-(4-(trifluoromethyl)benzyl)-1H-indole-7-carboxamido)methyl)benzoic acid]
< 100 nM	O=C(O)c1ccc(CNC(=O)c2cc(-c3ccc(F)c(Cl)c3)cc3ccn(Cc4ccc(C(F)(F)F)cc4)c23)cc1 [Example 94, 4-((5-(3-chloro-4-fluorophenyl)-1-(4-(trifluoromethyl)benzyl)-1H-indole-7-carboxamido)methyl)benzoic]
< 100 nM	O=C(O)c1ccc(CNC(=O)c2cc(-c3cc(F)cc(Cl)c3)cc3ccn(Cc4ccc(C(F)(F)F)cc4)c23)cc1 [Example 95, 4-((5-(3-chloro-5-fluorophenyl)-1-(4-(trifluoromethyl)benzyl)-1H-indole-7-carboxamido)methyl)benzoic acid]
< 100 nM	N#Cc1cccc(-c2cc(C(=O)NCc3ccc(C(=O)O)cc3)c3c(cnn3Cc3ccc(C(F)(F)F)cc3)c2)c1 [Example 98, 4-((5-(3-cyanophenyl)-1-(4-(trifluoromethyl)benzyl)-1H-indazole-7-carboxamido)methyl)benzoic acid]
< 100 nM	O=C(O)c1ccc(CNC(=O)c2cc(-c3cc(F)cc(F)c3)cc3cnn(Cc4ccc(C(F)(F)F)cc4)c23)cc1 [Example 99, 4-((5-(3,5-difluorophenyl)-1-(4-(trifluoromethyl)benzyl)-1H-indazole-7-carboxamido)methyl)benzoic acid]
100 to 1000 nM	O=C(O)c1ccc(CNC(=O)c2ccc(Nc3ccccc3)c3ccn(Cc4cccc(Cl)c4)c23)cc1 [Example 103, 4-((1-(3-chlorobenzyl)-4-(phenylamino)-1H-indole-7-carboxamido)methyl)benzoic acid]
< 100 nM	O=C(O)c1ccc(CNC(=O)c2cc(-c3cccnc3)cc3ccn(Cc4cccc(Cl)c4)c23)cc1 [Example 104, 4-((1-(3-chlorobenzyl)-5-(pyridin-3-yl)-1H-indole-7-carboxamido)methyl)benzoic acid]
< 100 nM	O=C(O)c1ccc(CNC(=O)c2cc(-c3ccccc3)cc3ccn(Cc4cccc(Cl)c4)c23)cc1 [Example 105, 4-((1-(3-chlorobenzyl)-5-phenyl-1H-indole-7-carboxamido)methyl)benzoic acid]
< 100 nM	C[C@H](NC(=O)c1cc(-c2cccc(C#N)c2)cc2ccn(Cc3cccc(Cl)c3)c12)c1ccc(C(=O)O)cc1 [Example 108, (S)-4-(1-(1-(3-chlorobenzyl)-5-(3-cyanophenyl)-1H-indole-7-carboxamido)ethyl)benzoic acid]
< 100 nM	C[C@H](NC(=O)c1cc(-c2cccnc2)cc2ccn(Cc3cccc(Cl)c3)c12)c1ccc(C(=O)O)cc1 [Example 109, (S)-4-(1-(1-(3-chlorobenzyl)-5-(pyridin-3-yl)-1H-indole-7-carboxamido)ethyl)benzoic acid]
< 100 nM	C[C@H](NC(=O)c1cc(-c2ccccc2)cc2ccn(Cc3cccc(Cl)c3)c12)c1ccc(C(=O)O)cc1 [Example 110, (S)-4-(1-(1-(3-chlorobenzyl)-5-phenyl-1H-indole-7-carboxamido)ethyl)benzoic acid]
< 100 nM	C[C@H](NC(=O)c1cc(-c2cc(F)cc(F)c2)cc2ccn(Cc3cccc(Cl)c3)c12)c1ccc(C(=O)O)cc1 [Example 111, (S)-4-(1-(1-(3-chlorobenzyl)-5-(3,5-difluorophenyl)-1H-indole-7-carboxamido)ethyl)benzoic acid]
100 to 1000 nM	CNC(=O)c1cccc(-c2cc(C(=O)NCc3ccc(C(=O)O)cc3)c3c(ccn3Cc3ccc(C(F)(F)F)cc3)c2)c1 [Example 116, 4-((5-(3-(methylcarbamoyl)phenyl)-1-(4-(trifluoromethyl)benzyl)-1H-indole-7-carboxamido)methyl)benzoic acid]
100 to 1000 nM	N#Cc1cccc(-c2cc(C(=O)NC34CC(CC(=O)O)(C3)C4)c3c(Sc4ccc(C(F)(F)F)cc4)c[nH]c3c2)c1 [Example 118, 2-(3-(6-(3-cyanophenyl)-3-((4-(trifluoromethyl)phenyl)thio)-1H-indole-4-carboxamido)bicyclo[1.1.1]pentan-1-yl)acetic acid]
100 to 1000 nM	N#Cc1cccc(-c2cc(C(=O)NCC34CC(C(=O)O)(C3)C4)c3c(Sc4ccc(C(F)(F)F)cc4)c[nH]c3c2)c1 [Example 119, 3-((6-(3-cyanophenyl)-3-((4-(trifluoromethyl)phenyl)thio)-1H-indole-4-carboxamido)methyl)bicyclo[1.1.1]pentane-1-carboxylic acid]
100 to 1000 nM	Cn1cc(Sc2ccc(C(F)(F)F)cc2)c2c(C(=O)NCc3ccc(C(=O)O)cc3)cc(-c3cccc(C#N)c3)cc21 [Example 120, 4-((6-(3-cyanophenyl)-1-methyl-3-((4-(trifluoromethyl)phenyl)thio)-1H-indole-4-carboxamido)methyl)benzoic acid]
100 to 1000 nM	Cn1cc(Sc2ccc(C(F)(F)F)cc2)c2c(C(=O)NCc3ccc(C(=O)O)cc3)cc(-c3cccc(C(N)=O)c3)cc21 [Example 121, 4-((6-(3-carbamoylphenyl)-1-methyl-3-((4-(trifluoromethyl)phenyl)thio)-1H-indole-4-carboxamido)methyl)benzoic acid]
< 100 nM	O=C(O)c1ccc(CNC(=O)c2cc(-c3ccccc3)cc3ccn(Cc4cccc(C(F)(F)F)c4)c23)cc1 [Example 122, 4-((5-phenyl-1-(3-(trifluoromethyl)benzyl)-1H-indole-7-carboxamido)methyl)benzoic acid]
100 to 1000 nM	O=C(O)c1ccc(CNC(=O)c2cc(-c3cccnc3)cc3ccn(Cc4cccc(C(F)(F)F)c4)c23)cc1 [Example 123, 4-((5-(pyridin-3-yl)-1-(3-(trifluoromethyl)benzyl)-1H-indole-7-carboxamido)methyl)benzoic acid]
< 100 nM	O=C(O)c1ccc(CNC(=O)c2cc(-c3cc(F)cc(F)c3)cc3ccn(Cc4cccc(C(F)(F)F)c4)c23)cc1 [Example 125, 4-((5-(3,5-difluorophenyl)-1-(3-(trifluoromethyl)benzyl)-1H-indole-7-carboxamido)methyl)benzoic acid]
